Data from patent US12486267B2, “Imidazo[1,2-A]pyridine and [1,2,4]triazolo[1,5-A]pyridine derivatives as TLR9 inhibitors for the treatment of fibrosis” (BRISTOL-MYERS SQUIBB COMPANY, priority 2020, dated 2025).

Assays:
Assay type in all cases: cell-based
human TLR7 = target: T1, human TLR7 (Homo sapiens, UniProt Q9NYK1); assay: TLR7 inhibition reporter assay (HEK-Blue cells, SEAP reporter); conditions: HEK-Blue cells overexpressing human TLR7; stimulated with gardiquimod 7.5 μM; 22 hour incubation; SEAP readout
T1 sequence (Q9NYK1 27-1049): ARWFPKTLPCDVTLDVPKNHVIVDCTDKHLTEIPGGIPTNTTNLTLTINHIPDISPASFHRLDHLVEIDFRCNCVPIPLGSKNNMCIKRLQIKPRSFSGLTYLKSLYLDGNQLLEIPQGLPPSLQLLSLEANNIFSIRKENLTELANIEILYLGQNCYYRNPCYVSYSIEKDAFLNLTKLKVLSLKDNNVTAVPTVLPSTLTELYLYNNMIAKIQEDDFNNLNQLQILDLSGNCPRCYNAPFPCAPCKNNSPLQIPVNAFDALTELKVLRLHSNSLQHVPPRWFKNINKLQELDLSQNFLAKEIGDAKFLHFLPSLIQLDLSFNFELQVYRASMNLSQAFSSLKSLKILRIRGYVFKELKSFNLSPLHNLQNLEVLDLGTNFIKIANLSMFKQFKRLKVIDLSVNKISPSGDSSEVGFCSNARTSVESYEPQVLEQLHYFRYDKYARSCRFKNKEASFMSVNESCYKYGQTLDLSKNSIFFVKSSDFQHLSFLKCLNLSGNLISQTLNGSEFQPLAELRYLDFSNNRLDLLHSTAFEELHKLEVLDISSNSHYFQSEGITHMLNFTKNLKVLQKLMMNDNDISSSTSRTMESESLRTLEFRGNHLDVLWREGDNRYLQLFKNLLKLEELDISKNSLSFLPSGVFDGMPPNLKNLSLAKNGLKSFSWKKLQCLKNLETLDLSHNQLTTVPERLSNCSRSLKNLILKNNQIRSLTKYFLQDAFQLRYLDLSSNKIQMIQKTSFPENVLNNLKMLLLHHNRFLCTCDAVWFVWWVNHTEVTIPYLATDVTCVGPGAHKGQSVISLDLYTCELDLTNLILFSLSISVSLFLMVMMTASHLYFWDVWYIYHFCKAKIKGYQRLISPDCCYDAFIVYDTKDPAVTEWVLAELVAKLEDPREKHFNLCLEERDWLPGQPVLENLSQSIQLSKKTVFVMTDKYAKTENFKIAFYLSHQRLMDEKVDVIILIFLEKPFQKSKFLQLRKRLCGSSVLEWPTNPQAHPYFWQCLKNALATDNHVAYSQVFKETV
In short: (§1)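 HEK-Blue cells with NF-κB/AP-1-driven SEAP pre-treated 30 min with compound (0.05 nM–50 μM), then stimulated with gardiquimod 7.5 μM (TLR7), R848 15.9 μM (TLR8) or ODN2006 5 nM (TLR9). SEAP detected after 22 h at 37 °C; percent inhibition relative to agonist-plus-DMSO and known-inhibitor wells.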

human TLR8 = target: T2, human TLR8 (Homo sapiens, UniProt Q9NR97); assay: TLR8 inhibition reporter assay (HEK-Blue cells, SEAP reporter); conditions: HEK-Blue cells overexpressing human TLR8; stimulated with R848 15.9 μM; 22 hour incubation; SEAP readout
T2 sequence (Q9NR97 27-1041): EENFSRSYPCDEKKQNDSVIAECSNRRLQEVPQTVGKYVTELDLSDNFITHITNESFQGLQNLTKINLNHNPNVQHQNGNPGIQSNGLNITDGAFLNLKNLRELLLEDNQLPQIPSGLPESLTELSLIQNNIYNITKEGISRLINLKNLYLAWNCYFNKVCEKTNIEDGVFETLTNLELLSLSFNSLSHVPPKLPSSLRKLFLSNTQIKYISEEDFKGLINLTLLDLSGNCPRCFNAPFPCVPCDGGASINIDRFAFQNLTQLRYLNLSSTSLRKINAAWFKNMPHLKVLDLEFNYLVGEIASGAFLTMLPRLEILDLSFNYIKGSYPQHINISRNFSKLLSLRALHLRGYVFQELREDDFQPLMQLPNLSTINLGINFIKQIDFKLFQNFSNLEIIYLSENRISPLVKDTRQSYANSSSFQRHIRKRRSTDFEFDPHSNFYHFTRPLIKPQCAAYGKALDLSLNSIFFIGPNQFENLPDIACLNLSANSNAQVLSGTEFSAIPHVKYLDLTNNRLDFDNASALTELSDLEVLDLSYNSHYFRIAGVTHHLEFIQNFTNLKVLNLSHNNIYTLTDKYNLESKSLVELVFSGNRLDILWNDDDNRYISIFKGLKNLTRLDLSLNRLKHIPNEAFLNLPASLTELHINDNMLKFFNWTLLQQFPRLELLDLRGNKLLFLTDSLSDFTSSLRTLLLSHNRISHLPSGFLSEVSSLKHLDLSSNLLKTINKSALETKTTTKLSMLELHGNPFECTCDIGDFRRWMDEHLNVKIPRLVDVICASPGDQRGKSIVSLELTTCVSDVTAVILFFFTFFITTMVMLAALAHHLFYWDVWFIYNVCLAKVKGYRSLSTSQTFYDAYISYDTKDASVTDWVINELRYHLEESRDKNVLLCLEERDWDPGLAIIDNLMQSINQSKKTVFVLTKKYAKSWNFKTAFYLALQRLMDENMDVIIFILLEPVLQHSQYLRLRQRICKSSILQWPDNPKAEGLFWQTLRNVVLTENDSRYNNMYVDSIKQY
Method: TLR7/8/9 Inhibition Reporter Assays
HEK-Blue™-cells (Invivogen) overexpressing human TLR7, TLR8 or TLR9 receptors were used for screening inhibitors of these receptors using an inducible SEAP (secreted embryonic alkaline phosphatase) reporter gene under the control of the […] minimal promoter fused to five NF-κB and AP-1-binding sites. Briefly, cells are seeded into Greiner 384 well plates (15000 cells per well for TLR7, 20,000 for TLR8 and 25,000 for TLR9) and then treated with test compounds in DMSO to yield a final dose response concentration range of 0.05 nM-50 μM. After a 30 minute compound pre-treatment at room temperature, the cells are then stimulated with a TLR7 ligand (gardiquimod at a final concentration of 7.5 μM), TLR8 ligand (R848 at a final concentration of 15.9 μM) or TLR9 ligand (ODN2006 at a final concentration of 5 nM) to activate NF-κB and AP-1 which induce the production of SEAP. After a 22 hour incubation at 37° C., 5% CO2, SEAP levels are determined with the addition of HEK-Blue™ Detection reagent (Invivogen), a cell culture medium that allows for detection of SEAP, according to manufacturer's specifications. The percent inhibition is determined as the % reduction in the HEK-Blue signal present in wells treated with agonist plus DMSO alone compared to wells treated with a known inhibitor.

human TLR9 = target: T3, human TLR9 (Homo sapiens, UniProt Q9NR96); assay: TLR9 inhibition reporter assay (HEK-Blue cells, SEAP reporter); conditions: HEK-Blue cells overexpressing human TLR9; stimulated with ODN2006 5 nM; 22 hour incubation; SEAP readout
T3 sequence (Q9NR96 26-1032): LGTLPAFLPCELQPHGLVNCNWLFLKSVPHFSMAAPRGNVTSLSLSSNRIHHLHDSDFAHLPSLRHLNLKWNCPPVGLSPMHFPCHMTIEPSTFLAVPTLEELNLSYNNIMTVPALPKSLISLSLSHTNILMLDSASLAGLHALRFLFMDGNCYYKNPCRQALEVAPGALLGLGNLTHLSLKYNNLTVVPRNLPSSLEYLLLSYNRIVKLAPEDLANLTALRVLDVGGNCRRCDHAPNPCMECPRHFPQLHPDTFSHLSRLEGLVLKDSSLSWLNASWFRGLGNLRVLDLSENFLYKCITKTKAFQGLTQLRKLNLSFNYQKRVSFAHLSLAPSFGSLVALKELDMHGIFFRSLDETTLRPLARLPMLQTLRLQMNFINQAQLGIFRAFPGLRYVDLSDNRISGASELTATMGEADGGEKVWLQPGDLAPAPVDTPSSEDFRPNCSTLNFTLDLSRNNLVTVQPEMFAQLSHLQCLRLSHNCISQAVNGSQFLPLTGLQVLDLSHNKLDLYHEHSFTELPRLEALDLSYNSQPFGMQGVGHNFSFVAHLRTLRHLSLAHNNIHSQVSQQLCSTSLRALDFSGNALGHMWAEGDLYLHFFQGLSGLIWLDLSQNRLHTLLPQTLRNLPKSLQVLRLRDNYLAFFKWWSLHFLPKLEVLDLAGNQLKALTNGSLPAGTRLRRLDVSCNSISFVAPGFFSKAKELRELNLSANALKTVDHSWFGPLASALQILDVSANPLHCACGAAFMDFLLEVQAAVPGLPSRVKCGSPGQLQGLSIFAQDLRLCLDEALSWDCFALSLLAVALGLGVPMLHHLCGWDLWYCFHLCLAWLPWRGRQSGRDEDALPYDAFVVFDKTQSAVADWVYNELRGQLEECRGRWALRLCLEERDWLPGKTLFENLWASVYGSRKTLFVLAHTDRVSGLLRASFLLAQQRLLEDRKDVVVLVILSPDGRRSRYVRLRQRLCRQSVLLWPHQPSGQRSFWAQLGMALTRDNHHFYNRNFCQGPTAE
In short: as §1

| Compound | IC50 (human TLR7) | IC50 (human TLR8) | IC50 (human TLR9) |
| --- | --- | --- | --- |
| COc1ccc(-c2cn3cc(C4CCN(C5CC6(C5)CN(C5CC5)C6)CC4)cc(C)c3n2)cc1OC [Example 17, 6-(1-(2-cyclopropyl-2-azaspiro[3.3]heptan-6-yl)piperidin-4-yl)-2-(3,4-dimethoxyphenyl)-8-methylimidazo[1,2-a]pyridine] | 2300 nM | > 50000 nM | 22 nM |
| COc1ccc(-c2cn3cc(C4CCN(C5CCN(CC(C)C)CC5)CC4)cc(C)c3n2)cc1OC [Example 3, 2-(3,4-dimethoxyphenyl)-6-(1′-isobutyl-[1,4′-bipiperidin]-4-yl)-8-methylimidazo[1,2-a]pyridine] | 1800 nM | > 50000 nM | 32 nM |
| CS(=O)(=O)c1ccc(-c2cn3cc(C4CCN(C5CC6CCC(C5)N6CC5CC5)CC4)cc(F)c3n2)cc1 (single isomer, unassigned) [Example 115, 6-(1-(8-(cyclopropylmethyl)-8-azabicyclo[3.2.1]octan-3-yl)piperidin-4-yl)-8-fluoro-2-(4-(methylsulfonyl)phenyl)imidazo[1,2-a]pyridine] | 1700 nM | 49000 nM | 43 nM |
| Cc1cc(C2CCN(C3CC4CCC(C3)N4CC3CCC3)CC2)cn2cc(-c3ccc(S(C)(=O)=O)cc3)nc12 (single isomer, unassigned) [Example 89, 6-(1-(8-(cyclobutylmethyl)-8-azabicyclo[3.2.1]octan-3-yl)piperidin-4-yl)-8-methyl-2-(4-(methylsulfonyl)phenyl)imidazo[1,2-a]pyridine] | 2200 nM | > 50000 nM | 329 nM |
| CS(=O)(=O)c1ccc(-c2cn3c(n2)CC[C@H](C2CCN(C4CC5CCC(C4)N5CC4CC4)CC2)C3)cc1 (single isomer, unassigned) [Example 138] | > 50000 nM | > 50000 nM | 381 nM |
| CC(C)CN1CCC(N2CCC(c3ccc4nc(-c5ccc(S(C)(=O)=O)cc5)cn4c3F)CC2)CC1 [Example 131, 5-fluoro-6-(1′-isobutyl-[1,4′-bipiperidin]-4-yl)-2-(4-(methylsulfonyl)phenyl) imidazo[1,2-a]pyridine] | 18100 nM | 16700 nM | 58 nM |
| COc1ccc(-c2cn3c(n2)CC[C@@H](C2CCN(C4CC5CCC(C4)N5C(C)C)CC2)C3)cc1OC (single isomer, unassigned) [Example 136] | 15200 nM | > 25000 nM | 78 nM |
| COc1ccc(-c2cn3c(n2)CCC(C2CCN(C4CCN(C(C)C)CC4)CC2)C3)cc1OC (racemic) [Example 34, 2-(3,4-dimethoxyphenyl)-6-(1′-isopropyl-[1,4′-bipiperidin]-4-yl)-5,6,7,8-tetrahydroimidazo[1,2-a]pyridine] | 12000 nM | > 50000 nM | 37 nM |
| CS(=O)(=O)c1ccc(-c2cn3cc(C4CCN(C5CCN(CC6CC6)CC5)CC4)cc(F)c3n2)cc1 [Example 109, 6-(1′-(cyclopropylmethyl)-[1,4′-bipiperidin]-4-yl)-8-fluoro-2-(4-(methylsulfonyl)phenyl)imidazo[1,2-a]pyridine] | 1300 nM | > 50000 nM | 4.3 nM |
| COc1ccc(-c2cn3c(n2)CCC(C2CCN(C4CCN(C(=O)C5CC5)CC4)CC2)C3)cc1OC (single isomer, unassigned) [Example 44, cyclopropyl(4-(2-(3,4-dimethoxyphenyl)-5,6,7,8-tetrahydroimidazo[1,2-a]pyridin-6-yl)-[1,4′-bipiperidin]-1′-yl)methanone] | 45000 nM | > 50000 nM | 314 nM |
| COc1ccc(-c2cn3c(n2)CCC(C2CCN(C4CCN(CC5CC5)CC4)CC2)C3)cc1OC (single isomer, unassigned) [Example 56, 6-(1′-(cyclopropylmethyl)-[1,4′-bipiperidin]-4-yl)-2-(3,4-dimethoxyphenyl)-5,6,7,8-tetrahydroimidazo[1,2-a]pyridine] | 3800 nM | > 50000 nM | 540 nM |
